Results as given in paper PMC11459959, “Discovery of new acetamide derivatives of 5-indole-1,3,4-oxadiazol-2-thiol as inhibitors of HIV-1 Tat-mediated viral transcription” (Antimicrobial Agents and Chemotherapy, 2024).

How the values were obtained:
Tat protein = Tat protein level in transfected HeLa cells, western blotting; settings: HeLa cells transfected with pcDNA3-Flag-Tat86, 1.5 µM, 2 days
Description: (C) HeLa cells were transfected with pcDNA3-Flag-Tat86 plasmid. […] The levels of Tat protein were analyzed by western blotting using antibodies against Flag and α-tubulin.
The protein levels of the cell lysates were analyzed using western blotting as previously described ([12]). In brief, whole-cell lysates and samples fractionated in nuclear or cytoplasm were prepared with a 5× SDS sample buffer and subsequently subjected to SDS-polyacrylamide gel electrophoresis. Proteins were subsequently transferred onto polyvinylidene difluoride membranes (Millipore).

[1] = target: T1, interaction between Tat and cyclin T1 (Human immunodeficiency virus type 1 group M subtype B, UniProt P04608); assay: Co-immunoprecipitation of Tat and cyclin T1; assay type: cell-based; settings: co-immunoprecipitation in transfected cells
T1 construct: expressed in transfected cells; the methods paragraph b60 says 293T
T1 sequence (P04608 whole entry): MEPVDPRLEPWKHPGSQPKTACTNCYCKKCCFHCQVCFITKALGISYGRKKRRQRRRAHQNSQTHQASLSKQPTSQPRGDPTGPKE
Description: The co-immunoprecipitation assay was performed as previously described ([12], [58]). Briefly, 293T cells were transfected with Tat-expressing plasmids (pcDNA3–Flag–Tat86) using Lipofectamine 2000 (Invitrogen). After 48 h, the cells were lysed in an immunoprecipitation buffer [250 mM NaCl, 0.5% NP-40, 50 mM Tris-HCl (pH 7.5), 5 mM ethylenediaminetetraacetic acid, and protease/phosphatase inhibitor cocktail]. The cell lysates were subsequently incubated with an anti-Flag monoclonal antibody (M2; Sigma-Aldrich) at 4°C. After overnight incubation, the immune complex was then pulled down with protein A/G-agarose beads (Santa Cruz Biotechnology) and analyzed using western blotting.
Supplementary Figure S6. A. Quantitativereal-timePCRofHIV-1mRNAfromHIV-1 NL4-3-infectedA3.01cells treated oruntreatedwiththeindicatedcompoundswasperformedusingthe envprimerset,andlevelswerenormalizedtothoseof gapdh. Thedata
represent the relative fold change compared with DMSO treatment (n = 3).B. Effect of the compounds on NF-κB promoter activity assessed using a luciferase assay. […]
pCMV-R-Luc (200 ng). […] Theluciferase activity was determined using aDual-GloTMLuciferase assaykit (Promega).
The data normalized to the R-Luc activity are expressed as themean±SD (n = 3) of the relative fold activitycompared with the no-PMA(vehicle) treatment.C. […]

Row | SMILES | decrease of expression of Tat protein (Tat protein) | change in interaction between Tat and cyclin T1 [1]
1 | Cc1[nH]c2ccc(-c3nnc(SCC(=O)N4CCCC4)o3)cc2c1C [Compound 13, 2-((5-(2,3-Dimethyl-1H-indol-5-yl)-1,3,4-oxadiazol-2-yl)thio)-1-(pyrrolidin-1-yl)ethan-1-one] | did not exhibit a decrease | no changes were observed
2 | Cc1[nH]c2ccc(-c3nnc(SCC(=O)N4CCCCC4)o3)cc2c1C [Compound 9, 2-((5-(2,3-Dimethyl-1H-indol-5-yl)-1,3,4-oxadiazol-2-yl)thio)-1-(piperidin-1-yl)ethan-1-one] | did not exhibit a decrease | no changes were observed
